Laboratory results from US20160186187A1, “REGULATABLE GENE EXPRESSION” (BIOSYNTIA APS, priority 2013, published 2016).
Entries after “also recorded” stand apart in the source; their conditions may differ.

Key:
mCTC8-4 aptamer = settings: previously determined (Jenison et al., 1994); cited from earlier work
EcpGEBO5.1 [1] = test: Growth response of EcpGEBO5.1 for xanthine alkaloids (plate selection assay); format: cell-based, Escherichia coli; settings: for Growth, Selection: ampicillin 50 μg/mL, spectinomycin 80 μg/mL, chloramphenicol 30 μg/mL; for Growth, No Selection: plates without spectinomycin and chloramphenicol
Protocol: The growth response of EcpGEBO5.1 for 4 different xanthine alkaloids was determined empirically using a selection assay with varying concentrations xanthine-based compounds: theophylline, xanthine, theobromine and caffeine.
Procedure: 300-400 colony forming units were plated on plates containing ampicillin (50 μg/mL), spectinomycin (80 μg/mL), chloramphenicol (30 μg/mL) and the indicated concentration of xanthine-based compound—see Table 2: Dissociation constants (KJ for the xanthines with the aptamer region (mCTC8-4 aptamer) previously determined (Jenison et al., 1994). No selection means plates without spectinomycin and chloramphenicol. (+) means growth was observed. (−) means no growth was observed. (˜) means reduced growth was observed.

EcpGEBO5.1 + pZE21 = test: Growth response to xanthine in M9 minimal medium, control strain; format: cell-based, Escherichia coli; settings: for OD600 of EcpGEBO5.1 + pZE21: selection (chloramphenicol 30 μg/ml, spectinomycin 80 μg/ml), 16 h
Protocol: (§1) In order to test the hypothesis, growth experiments with and without xanthine was performed. First, in order eliminate the putative contribution of any background mutation of the genome or of the pGEBO5.1 assay plasmid the library plasmid encoding the putative xanthine permease (pZE21_1H) from the AB95D01 soil metagenomic library was extracted and retransformed in strain EcpGEBO5.1. Instead of testing the strain in LB-medium, xanthine-free M9 minimal medium was used to test the effect of defined xanthine concentrations. Strain EcpGEBO5.1 transformed with the empty cloning vector pZE21 (EcpGEBO5.1+pZE21) was used as a control. Both strains were inoculated in 3 ml M9 minimal medium supplemented with kanamycin 50 μg/ml and ampicillin 50 μg/ml and grown overnight. The next day a new 3 ml culture was prepared under same conditions and inoculated by transferring 30 μl from the initial culture. At exponential phase (when the optical density at 600 nm (0D600) had reached ˜0.5) the culture was used to inoculate 200 μl M9 minimal selective media in a microtiterplate with varying concentrations of xanthine (Table below). Inoculums were diluted such that the initial OD600 of each culture was exactly 0.01. The microtiter plate was incubated at 37° C. in an ELx808 Absorbance Microtiterplate Reader from Biotek with shaking at 200 rpm. OD600 was measured after 16 h and the average and standard deviation was calculated from three biological replicates of each xanthine concentration. When grown in concentrations of xanthine ranging from 0 mM to 1 mM but no chloramphenicol or spectinomycin both strains were unaffected by the presence of xanthine. When applying selection (chloramphenicol 30 μg/ml and spectinomycin 80 μg/ml), growth was observed only for the strain harbouring the xanthine permease containing plasmid (pZE21_1H) and only when xanthine was added (Table 3). The experiment confirms the prediction that the DNA insert is encoding a xanthine permease protein, and that the increased xanthine uptake enables growth under selective conditions.

EcpGEBO5.1 + pZE21_1H = test: Growth response to xanthine in M9 minimal medium, xanthine permease strain; format: cell-based, Escherichia coli; settings: for OD600 of EcpGEBO5.1 + pZE21_1H: selection (chloramphenicol 30 μg/ml, spectinomycin 80 μg/ml), 16 h
Protocol: as §1

EcpGEBO5.1 [2] = test: Spontaneous resistance of EcpGEBO5.1 in single and dual antibiotic selection (plating); format: cell-based, Escherichia coli; settings: for Growth on antibiotic plate: LB agar, chloramphenicol 30 μg/mL and/or spectinomycin 80 μg/mL; for Colonies on single selection plates (in words): three plates each, 24 h of incubation
Protocol: pGEBO5.1 was transformed into E. coli Dh10B cells (forming EcpGEBO5.1) using standard methods known to the skilled person. To test whether the double selection system solved the problem of spontaneous resistance, plating of up to 1.3×10^8 EcpGEBO5.1 cells was performed in 10 replicates on LB agar media containing spectinomycin (80 μg/mL) and chloramphenicol (30 μg/mL) (‘dual selection’). As a control, plating on plates containing only chloramphenicol (30 μg/mL) or spectinomycin (80 μg/mL) (‘single selection’) was each performed in triplicate (See Table 1). Each plate was incubated for 72 hours. Of the 10 plates with dual selection no colonies were observed within the first 48 hours of incubation. […] Therefore, it appears that the probability of a single mutation to confer spontaneous resistance to one antibiotic is significant whereas the probability of a simultaneous double mutation to confer spontaneous resistance to both antibiotics is effectively nil.

[3] = xanthine 0 mM to 1 mM, no chloramphenicol or spectinomycin
[4] = 1.3 × 10^6 CFU plated (1 ul), 24 h growth
[5] = 1.3 × 10^6 CFU plated (1 ul), 48 h growth
[6] = 1.3 × 10^6 CFU plated (1 ul), 72 h growth
[7] = 1.3 × 10^7 CFU plated (10 ul), 24 h growth
[8] = 1.3 × 10^7 CFU plated (10 ul), 48 h growth
[9] = 1.3 × 10^7 CFU plated (10 ul), 72 h growth

Row | Structure (SMILES) | Kd (mCTC8-4 aptamer) [µM] | Growth, Selection (EcpGEBO5.1 [1]; 1 mM xanthine compound) | Growth, No Selection (EcpGEBO5.1 [1]; 1 mM xanthine compound) | Growth on antibiotic plate (EcpGEBO5.1 [2]; [4]) | Growth on antibiotic plate (EcpGEBO5.1 [2]; [5]) | Growth on antibiotic plate (EcpGEBO5.1 [2]; [6]) | Growth on antibiotic plate (EcpGEBO5.1 [2]; [7]) | Growth on antibiotic plate (EcpGEBO5.1 [2]; [8]) | Growth on antibiotic plate (EcpGEBO5.1 [2]; [9]) | Colonies on single selection plates (in words) (EcpGEBO5.1 [2]) | also measured
1 | Cn1c(=O)c2c(ncn2C)n(C)c1=O [Caffeine, caffeine] | 3500 ± 1500 |  |  |  |  |  |  |  |  |  | Growth, Selection (EcpGEBO5.1 [1]; 3 mM xanthine compound): −; Growth, No Selection (EcpGEBO5.1 [1]; 3 mM xanthine compound): +; Growth, Selection (EcpGEBO5.1 [1]; 7 mM xanthine compound): −
2 | Cn1cnc2c1c(=O)[nH]c(=O)n2C [Theobromine, theobromine] | > 500 | − | + |  |  |  |  |  |  |  | 
3 | Cn1c(=O)c2[nH]cnc2n(C)c1=O [Theophylline, theophylline] | 0.32 ± 0.13 |  |  |  |  |  |  |  |  |  | Growth, No Selection (EcpGEBO5.1 [1]; 0.1 mM xanthine compound): +; Growth, Selection (EcpGEBO5.1 [1]; 2 mM xanthine compound): +; Growth, No Selection (EcpGEBO5.1 [1]; 2 mM xanthine compound): +
4 | O=c1[nH]c(=O)c2[nH]cnc2[nH]1 [Xanthine, xanthine] | 8.5 ± 0.4 | − | + |  |  |  |  |  |  |  | Effect of xanthine on growth without selection (EcpGEBO5.1 + pZE21; [3]): unaffected; OD600 of EcpGEBO5.1 + pZE21 (EcpGEBO5.1 + pZE21; xanthine 1.0 μM): 0.02 ± 0.00; OD600 of EcpGEBO5.1 + pZE21 (EcpGEBO5.1 + pZE21; xanthine 1.5 μM): 0.02 ± 0.00; OD600 of EcpGEBO5.1 + pZE21 (EcpGEBO5.1 + pZE21; xanthine 2.0 μM): 0.02 ± 0.00; OD600 of EcpGEBO5.1 + pZE21 (EcpGEBO5.1 + pZE21; xanthine 2.5 μM): 0.03 ± 0.00; OD600 of EcpGEBO5.1 + pZE21 (EcpGEBO5.1 + pZE21; xanthine 4.5 μM): 0.03 ± 0.00; OD600 of EcpGEBO5.1 + pZE21 (EcpGEBO5.1 + pZE21; xanthine 12.5 μM): 0.03 ± 0.01; Effect of xanthine on growth without selection (EcpGEBO5.1 + pZE21_1H; [3]): unaffected; OD600 of EcpGEBO5.1 + pZE21_1H (EcpGEBO5.1 + pZE21_1H; xanthine 1.0 μM): 0.17 ± 0.01; OD600 of EcpGEBO5.1 + pZE21_1H (EcpGEBO5.1 + pZE21_1H; xanthine 1.5 μM): 0.29 ± 0.01; OD600 of EcpGEBO5.1 + pZE21_1H (EcpGEBO5.1 + pZE21_1H; xanthine 2.0 μM): 0.37 ± 0.00; OD600 of EcpGEBO5.1 + pZE21_1H (EcpGEBO5.1 + pZE21_1H; xanthine 2.5 μM): 0.42 ± 0.00; OD600 of EcpGEBO5.1 + pZE21_1H (EcpGEBO5.1 + pZE21_1H; xanthine 4.5 μM): 0.50 ± 0.01; OD600 of EcpGEBO5.1 + pZE21_1H (EcpGEBO5.1 + pZE21_1H; xanthine 12.5 μM): 0.51 ± 0.01; Growth of EcpGEBO5.1 under selective conditions (in words) (EcpGEBO5.1 [1]; 1 mM xanthine in the growth medium): lack of growth; also recorded: did not enable growth
5 | O=C(N[C@H](CO)[C@H](O)c1ccc([N+](=O)[O-])cc1)C(Cl)Cl [chloramphenicol] |  |  |  | − | + (‘+’ single colonies (1-1000)) | + (‘+’ single colonies (1-1000)) | + (‘+’ single colonies (1-1000)) | ++ | ++ | numerous colonies | 
6 | CN[C@@H]1[C@H](O)[C@H](NC)[C@H]2O[C@@]3(O)C(=O)C[C@@H](C)O[C@H]3O[C@@H]2[C@H]1O [spectinomycin] |  |  |  | + (‘+’ single colonies (1-1000)) | ++ | ++ | + (‘+’ single colonies (1-1000)) | ++ | ++ | numerous colonies | 
